Experimental data taken from US7129272B2, “Apoptosis inhibitor” (Sucampo AG, priority 2000, dated 2006).

Test system: retina
Experiment: Light-induced retinal apoptosis in rats under continuous light exposure, TUNEL staining
Assay type: in vivo, SD strain rats
Conditions: SD rats exposed to 1000 lux for 4 days; 10 μg/kg subcutaneously three times a day for 4 days; TUNEL-positive cells to total cells per 200 μm of retina; n=5; control 9.3 ± 0.8; p < 0.01
Procedure: (1) Breeding Condition and Administration Method SD strain rats (male, 11 weeks old) were continuously exposed to 1000 lux of light for 4 days. During the exposure of light, the test group animals were administered subcutaneously with a composition comprising 2-decarboxy-2-(2-carboxyethyl)-13,14-dihydro-15-keto-16,16-difluoro-20-ethyl-PGE, isopropyl ester of the following formula (IV) at the amount of 10 μg/kg of the active ingredient per single administration three times a day, for 4 days. The control group animals were administrated subcutaneously the same volume of the vehicle. [drawing 7] (2) Preparation and Staining After the continuous light exposure was finished, animals of test and control groups were sacrificed by excessive etherization and both eyes of each animal were removed. The eyes were immediately fixed in a 2% paraformaldehyde and 2.5% glutaraldehyde solution in phosphate buffer, dehydrated with alcohol, and then embedded in paraffin. Thus fixed eyes were sliced parallel to the meridian of eye to provide thin retinal preparations each comprises optic disc. The obtained slices were subjected to tunnel staining (Apoptag® Intergen Company). (3) Estimation Total cell number and the number of tunnel-positive cells per 200 μm of the retina were counted and the ratio of the TUNEL-positive cells to the total cell number was determined. […]

With `CCCCCCC(F)(F)C(=O)CC[C@H]1[C@H](O)CC(=O)[C@@H]1CCCCCCCCC(=O)OC(C)C` [formula (IV), 2-decarboxy-2-(2-carboxyethyl)-13,14-dihydro-15-keto-16,16-difluoro-20-ethyl-PGE, isopropyl ester] the “Ratio of the TUNEL-positive cells (%) (Ave ± SE)” value was 1.5 ± 0.2 %.
